Measurements taken from patent US6737383B1, “Herbicidal oxadiazolidines” (priority 1999, dated 2004).

Columns and labels:
sugar beet = assay: Test B pre/postemergence sugar beet; format: in vivo, Beta vulgaris
In short: (§1)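 Test chemicals in a non-phytotoxic solvent mixture with surfactant were sprayed preemergence onto planted seeds and postemergence onto plants 2 to 18 cm tall (1- to 4-leaf stage). After twelve to sixteen days in a greenhouse, injury was visually rated against untreated controls from 0 (no effect) to 10 (complete control).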

wild oat = assay: Test B pre/postemergence wild oat; format: in vivo, Avena fatua
In short: as §1

corn = assay: Test B pre/postemergence corn; format: in vivo, Zea mays
In short: as §1

bedstraw = assay: Test B pre/postemergence bedstraw; format: in vivo, Galium aparine
In short: as §1

soybean = assay: Test B pre/postemergence soybean; format: in vivo, Glycine max
In short: as §1

purple nutsedge = assay: Test B pre/postemergence purple nutsedge; format: in vivo, Cyperus rotundus
In short: as §1

surinam grass = assay: Test B pre/postemergence surinam grass; format: in vivo, Brachiaria decumbens
In short: as §1

crabgrass = assay: Test B pre/postemergence crabgrass; format: in vivo, Digitaria sanguinalis
In short: as §1

giant foxtail = assay: Test B pre/postemergence giant foxtail; format: in vivo, Setaria faberii
In short: as §1

cocklebur = assay: Test B pre/postemergence cocklebur; format: in vivo, Xanthium strumarium
In short: as §1

velvetleaf = assay: Test B pre/postemergence velvetleaf; format: in vivo, Abutilon theophrasti
In short: as §1

wheat = assay: Test B pre/postemergence wheat; format: in vivo, Triticum aestivum
In short: as §1

morningglory = assay: Test B pre/postemergence morningglory; format: in vivo, Ipomoea hederacea
In short: as §1

pigweed = assay: Test B pre/postemergence pigweed; format: in vivo, Amaranthus retroflexus
In short: as §1

blackgrass = assay: Test B pre/postemergence blackgrass; format: in vivo, Alopecurus myosuroides
In short: as §1

rape = assay: Test B pre/postemergence rape; format: in vivo, Brassica napus
In short: as §1

[1] = Postemergence, Rate 62 g/ha, scale 0 to 10, 0 is no effect, 10 is complete control
[2] = Preemergence, Rate 125 g/ha, scale of 0 to 10 where 0 is no effect and 10 is complete control
[3] = Preemergence, Rate 250 g/ha, scale 0 (no effect) to 10 (complete control)
[4] = Rate 62 g/ha, Preemergence, scale 0 to 10
[5] = Rate 250 g/ha, Postemergence, scale 0 to 10, 0 is no effect, 10 is complete control
[6] = Rate 500 g/ha, Postemergence, scale 0 to 10, 0 is no effect, 10 is complete control
[7] = Rate 500 g/ha, Preemergence, scale 0 to 10 (0 no effect, 10 complete control)
[8] = Postemergence, Rate 125 g/ha, scale of 0 to 10 where 0 is no effect and 10 is complete control

C#CCn1c(=O)on(C(=O)N(c2ccccc2)C(C)C)c1=O [Compound 754]
6: Plant response rating, Wild oats (wild oat; [2]) | B. signalgrass plant response rating (surinam grass; [5]) | Rape plant response rating (rape; [3])
4: Plant response rating, Giant foxtail (giant foxtail; [1]) | Blackgrass plant response rating (blackgrass; [8]) | Plant response rating, Rape (rape; [2])
2: Corn plant response rating (corn; [5]) | Soybean plant response rating (soybean; [5]) | Soybean plant response rating (soybean; [6]) | B. signalgrass plant response rating (surinam grass; [8]) | Plant response rating, Blackgrass (blackgrass; [1])
1: Plant response rating, Velvetleaf (velvetleaf; [2]) | Morningglory plant response rating (morningglory; [3]) | Morningglory plant response rating (morningglory; [7])
3: Sugarbeets plant response rating (sugar beet; [3]) | Sugarbeets plant response rating (sugar beet; [6]) | Plant response rating, Nutsedge (purple nutsedge; [2]) | Nutsedge plant response rating (purple nutsedge; [3]) | Nutsedge plant response rating (purple nutsedge; [4]) | B. signalgrass plant response rating (surinam grass; Preemergence, Rate 62 g/ha, scale of 0 to 10 where 0 is no effect and 10 is complete control) | Plant response rating, B. signalgrass (surinam grass; [2]) | Velvetleaf plant response rating (velvetleaf; [3]) | Plant response rating, Wheat (wheat; [2])
5: Corn plant response rating (corn; [6]) | Plant response rating, Crabgrass (crabgrass; [1]) | Crabgrass plant response rating (crabgrass; [8]) | Velvetleaf plant response rating (velvetleaf; [7]) | Wheat plant response rating (wheat; [5]) | Wheat plant response rating (wheat; [6]) | Blackgrass plant response rating (blackgrass; [5]) | Blackgrass plant response rating (blackgrass; [6])
8: Wild oats plant response rating (wild oat; [3]) | B. signalgrass plant response rating (surinam grass; [3]) | B. signalgrass plant response rating (surinam grass; [6]) | Crabgrass plant response rating (crabgrass; [4]) | Giant foxtail plant response rating (giant foxtail; [8]) | Giant foxtail plant response rating (giant foxtail; [4]) | Giant foxtail plant response rating (giant foxtail; [5]) | Giant foxtail plant response rating (giant foxtail; [6]) | Plant response rating, Redroot pigweed (pigweed; [2]) | Redroot pigweed plant response rating (pigweed; [4]) | Rape plant response rating (rape; [7])
10: Nutsedge plant response rating (purple nutsedge; [7]) | Plant response rating, Morningglory (morningglory; [1]) | Morningglory plant response rating (morningglory; [8]) | Morningglory plant response rating (morningglory; [5]) | Morningglory plant response rating (morningglory; [6])
7: Sugarbeets plant response rating (sugar beet; [7]) | Wheat plant response rating (wheat; [3]) | Blackgrass plant response rating (blackgrass; [4])
9: Wild oats plant response rating (wild oat; [7]) | B. signalgrass plant response rating (surinam grass; [7]) | Plant response rating, Crabgrass (crabgrass; [2]) | Crabgrass plant response rating (crabgrass; [3]) | Crabgrass plant response rating (crabgrass; [5]) | Crabgrass plant response rating (crabgrass; [6]) | Crabgrass plant response rating (crabgrass; [7]) | Plant response rating, Giant foxtail (giant foxtail; [2]) | Giant foxtail plant response rating (giant foxtail; [3]) | Giant foxtail plant response rating (giant foxtail; [7]) | Wheat plant response rating (wheat; [7]) | Redroot pigweed plant response rating (pigweed; [3]) | Redroot pigweed plant response rating (pigweed; [7]) | Plant response rating, Blackgrass (blackgrass; [2]) | Blackgrass plant response rating (blackgrass; [3]) | Blackgrass plant response rating (blackgrass; [7])
0: Plant response rating, Sugarbeets (sugar beet; [1]) | Plant response rating, Sugarbeets (sugar beet; [2]) | Sugarbeets plant response rating (sugar beet; [4]) | Sugarbeets plant response rating (sugar beet; [5]) | Plant response rating, Wild oats (wild oat; [1]) | Wild oats plant response rating (wild oat; [4]) | Wild oats plant response rating (wild oat; [5]) | Wild oats plant response rating (wild oat; [6]) | Plant response rating, Corn (corn; [1]) | Corn plant response rating (corn; [8]) | Plant response rating, Corn (corn; [2]) | Corn plant response rating (corn; [3]) | Corn plant response rating (corn; [4]) | Corn plant response rating (corn; [7]) | Bedstraw plant response rating (bedstraw; [8]) | Plant response rating, Bedstraw (bedstraw; [2]) | Bedstraw plant response rating (bedstraw; [3]) | Bedstraw plant response rating (bedstraw; [4]) | Bedstraw plant response rating (bedstraw; [5]) | Bedstraw plant response rating (bedstraw; [7]) | Plant response rating, Soybean (soybean; [1]) | Plant response rating, Soybean (soybean; [2]) | Soybean plant response rating (soybean; [3]) | Soybean plant response rating (soybean; [4]) | Soybean plant response rating (soybean; [7]) | Plant response rating, Nutsedge (purple nutsedge; [1]) | Nutsedge plant response rating (purple nutsedge; [8]) | Nutsedge plant response rating (purple nutsedge; [6]) | Plant response rating, B. signalgrass (surinam grass; [1]) | Plant response rating, Cocklebur (cocklebur; [1]) | Cocklebur plant response rating (cocklebur; [8]) | Plant response rating, Cocklebur (cocklebur; [2]) | Cocklebur plant response rating (cocklebur; [3]) | Cocklebur plant response rating (cocklebur; [4]) | Cocklebur plant response rating (cocklebur; [5]) | Cocklebur plant response rating (cocklebur; [6]) | Cocklebur plant response rating (cocklebur; [7]) | Plant response rating, Velvetleaf (velvetleaf; [1]) | Velvetleaf plant response rating (velvetleaf; [4]) | Velvetleaf plant response rating (velvetleaf; [5]) | Velvetleaf plant response rating (velvetleaf; [6]) | Plant response rating, Wheat (wheat; [1]) | Wheat plant response rating (wheat; [4]) | Plant response rating, Morningglory (morningglory; [2]) | Morningglory plant response rating (morningglory; [4]) | Redroot pigweed plant response rating (pigweed; [8]) | Redroot pigweed plant response rating (pigweed; [5]) | Plant response rating, Rape (rape; [1]) | Rape plant response rating (rape; [8]) | Rape plant response rating (rape; [4]) | Rape plant response rating (rape; [5]) | Rape plant response rating (rape; [6])
